Test results from the NIST ThermoML archive (doi:10.1016/j.jct.2012.02.007).

Experiments:
[1] = mn = molality of the nth substance listed, in mol/kg; details: 101.3 kPa, Liquid; for speed of sound: Sing-around technique in a fixed-path interferometer; for mass density: Vibrating tube method
[2] = osmotic coefficient (dimensionless); mn = molality of the nth substance listed, in mol/kg; details: 323.15 K, Liquid, Vapor Pressure Osmometer

CCCCn1cc[n+](C)c1.N#CN=C=[N-] [1-butyl-3-methylimidazolium dicyanamide] + CCCO
[1]
Details	mass density, 293.15 K [kg/m3]	mass density, 308.15 K [kg/m3]	mass density, 323.15 K [kg/m3]	speed of sound, 293.15 K [m/s]	speed of sound, 308.15 K [m/s]	speed of sound, 323.15 K [m/s]
m1 = 0.0646	807.07	795.05	782.64	1229.5	1178.7	1128.5
m1 = 0.1004	808.7	796.71	784.35	1232.4	1181.7	1131.7
m1 = 0.154	811.09	799.15	786.83	1236.7	1186.2	1136.4
m1 = 0.2041	813.27	801.36	789.09	1240.4	1190	1140.4
m1 = 0.2521	815.21	803.31	791.08	1243.9	1193.4	1143.8
m1 = 0.5071	825.41	813.67	801.63	1261.1	1211.6	1162.8
m1 = 0.7606	834.72	823.09	811.21	1277.2	1228.3	1180.1
m1 = 1.012	843.22	831.69	819.94	1292.2	1243.8	1196.2
m1 = 1.263	851.11	839.67	828.03	1306.2	1258.2	1211.2
m1 = 1.512	858.43	847.07	835.54	1319.4	1271.9	1225.3
m1 = 1.765	865.25	853.97	842.54	1331.8	1284.7	1238.6
m1 = 2.017	871.65	860.45	849.11	1343.6	1297	1251.3
m1 = 2.52	883.38	872.29	861.11	1365.8	1319.7	1274.6
m1 = 2.826	889.83	878.84	867.75	1377.8	1332.3	1287.8
m1 = 3.488	902.23	891.37	880.45	1401.8	1357.1	1313.3

[2]
Details	osmotic coefficient
m1 = 0.0543	0.973
m1 = 0.0899	0.898
m1 = 0.1032	0.871
m1 = 0.2057	0.816
m1 = 0.3018	0.78
m1 = 0.4097	0.748
m1 = 0.5035	0.737
m1 = 0.8276	0.714
m1 = 1.24	0.691
m1 = 1.64	0.668
m1 = 2.049	0.646
m1 = 2.45	0.634
m1 = 2.837	0.616
m1 = 3.324	0.599
